Usually inhibition stands for the drop in the measured response relative to a control, in per cent.

T1 sequence (P21453 whole entry): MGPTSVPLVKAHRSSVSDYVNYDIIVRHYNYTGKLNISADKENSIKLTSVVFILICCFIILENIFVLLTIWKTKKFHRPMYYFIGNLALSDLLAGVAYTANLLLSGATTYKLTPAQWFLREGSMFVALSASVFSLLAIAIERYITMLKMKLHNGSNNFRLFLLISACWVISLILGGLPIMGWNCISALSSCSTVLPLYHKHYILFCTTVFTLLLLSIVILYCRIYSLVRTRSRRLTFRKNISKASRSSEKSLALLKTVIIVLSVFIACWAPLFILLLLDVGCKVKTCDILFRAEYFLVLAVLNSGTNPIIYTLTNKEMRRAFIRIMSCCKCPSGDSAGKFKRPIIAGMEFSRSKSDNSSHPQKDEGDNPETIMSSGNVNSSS

One assay addresses T1, Edg-1/S1P1 receptor (Homo sapiens, UniProt P21453).
T1 construct: expressed in transfected cells; host or cells: human osteogenic sarcoma U2OS cells: Edg-1 Transfluor U2OS WT Clone #37 (assay I), Edg-1 Transfluor U2OS Clone #3 (assay II)
Description: In vitro cell based receptor activation assay - Transfluor assay (assay I or II; beta-arrestin GFP relocalization after S1P stimulation). The note with it: at 3.30 μM (run with this as top concentration). In outline: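 U2OS cells overexpressing S1P1 with a beta-arrestin-GFP construct were pre-incubated with compound for 15 min at room temperature, then stimulated with S1P for 45 min at 37 °C. In assay I, final S1P was 375 nM or 750 nM and compound was a 9-point 3-fold series from 100 μM, in 1% DMSO. Cells were fixed and Hoechst-stained, GFP relocalization was imaged, and EC50 values were fitted.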
Turning to `CCn1c([C@@H](C)NS(=O)(=O)C2=Cc3ccccc3CC2)nc2ccc(C(F)(F)F)cc21` [Example 119, M-{(1R)-1-[1-Ethyl-6-(trifluoromethyl)-1H-benzimidazol-2-yl]ethyl}-3,4-diyhydronaphthalene-2-sulfonamide], testing at 3.3 µM gave an inhibition of 71.7%.
On the same count and under the same terms, in the case of `CCn1cc(S(=O)(=O)N[C@H](C)c2nc3ccc(C(F)(F)F)cc3n2CC)cn1` [Example 121, 1-ethyl-N-{(1R)-1-[1-Ethyl-6-(trifluoromethyl)-1H-benzimidazol-2-yl]ethyl}-1H-pyrazole-4-sulfonamide] it was 74%.

Still in this assay, the particulars now being: at 3.50 μM (titrated from top concentration 10 μM).
For `CCn1c([C@@H](C)NS(=O)(=O)c2cnn(C(C)C)c2C)nc2ccc(C(F)(F)F)cc21` [Example 118, N-{(1R)-1-[1-Ethyl-6-(trifluoromethyl)-1H-benzimidazol-2-yl]ethyl}-1-isopropyl-5-methyl-1H-pyrazole-4-sulfonamide], at 3.5 µM the inhibition was 78%.
Turning to `CCn1c([C@@H](C)NS(=O)(=O)c2cccc(F)c2)nc2ccc(C(F)(F)F)cc21` [Example 120, N-{(1R)-1-[1-Ethyl-6-(trifluoromethyl)-1H-benzimidazol-2-yl]ethyl}-3-fluorobenzenesulfonamide], at 3.5 µM the inhibition was 90.9%.
Same read-out and setting: as for `CCn1c([C@@H](C)NS(=O)(=O)c2ccc(OC)cc2)nc2ccc(C(F)(F)F)cc21` [Example 122, N-{(1R)-1-[1-Ethyl-6-(trifluoromethyl)-1H-benzimidazol-2-yl]ethyl}-4-methoxybenzenesulfonamide], the figure is 91.4%.
The same measure, in the same setting: in the case of `CCn1c([C@@H](C)NS(=O)(=O)c2cccc(Cl)c2)nc2ccc(C(F)(F)F)cc21` [Example 123, 3-Chloro-N-{(1R)-1-[1-ethyl-6-(trifluoromethyl)-1H-benzimidazol-2-yl]ethyl}benzenesulfonamide] it was 96.7%.
Same read-out and setting: in the case of `CCn1c([C@@H](C)NS(=O)(=O)c2ccc(OC)c(OC)c2)nc2ccc(C(F)(F)F)cc21` [Example 124, N-{(1R)-1-[1-Ethyl-6-(trifluoromethyl)-1H-benz-imidazol-2-yl]ethyl}-3,4-di-methoxybenzenesulfonamide] it was 79.4%; in that of `CCn1c([C@@H](C)NS(=O)(=O)c2ccccn2)nc2ccc(C(F)(F)F)cc21` [Example 125, N-{(1R)-1-[1-Ethyl-6-(trifluoromethyl)-1H-benzimidazol-2-yl]ethyl}pyridine-2-sulfonamide], 14.9%.
The compound `CCn1c([C@@H](C)NS(=O)(=O)c2cccnc2)nc2ccc(C(F)(F)F)cc21` [Example 126, (R)—N-(1-(1-ethyl-6-(trifluoromethyl)-1H-benzo[d]imidazol-2-yl)ethyl)pyridine-3-sulfonamide] had an inhibition at 3.5 µM of 92.8%.
The same measure, in the same setting: in the case of `CCn1c([C@@H](C)NS(=O)(=O)c2ccncc2)nc2ccc(C(F)(F)F)cc21` [Example 127, (R)-N-(1-(1-Ethyl-6-(trifluoromethyl)-1H-benzo[d]imidazol-2-yl)ethyl)pyridine-4-sulfonamide] it was 86.4%; in that of `CCn1c([C@@H](C)NS(=O)(=O)c2cnc(NN)c(Cl)c2)nc2ccc(C(F)(F)F)cc21` [Example 128, R-5-chloro-N-(1-(1-ethyl-6-(trifluoromethyl)-1H-benzo[d]imidazol-2-yl)ethyl)-6-hydrazinylpyridine-3-sulfonamide], 94.5%.
The same measure, in the same setting: as for `CCn1c([C@@H](C)NS(=O)(=O)c2cncc(Cl)c2)nc2ccc(C(F)(F)F)cc21` [Example 129, R-5-chloro-N-(1-(1-ethyl-6-(trifluoromethyl)-1H-benzo[d]imidazol-2-yl)ethyl)pyridine-3-sulfonamide], the figure is 90.3%.
`CCn1c(C(C)NS(=O)(=O)c2ccc(CN3CCOCC3)cc2)nc2ccc(C(F)(F)F)cc21` (stereo not drawn) [Example 130, N-(1-(1-ethyl-6-(trifluoromethyl)-1H-benzo[d]imidazol-2-yl)ethyl)-4-(morpholinomethyl)benzenesulfonamide] gave an inhibition at 3.5 µM of 10.8%.
Still for that read-out and setting: in the case of `CCn1c([C@@H](C)NS(=O)(=O)c2ccc(S(C)(=O)=O)cc2)nc2ccc(C(F)(F)F)cc21` [Example 131, (R)-N-(1-(1-Ethyl-6-(trifluoromethyl)-1H-benzo[d]imidazol-2-yl)ethyl)-4-(methylsulfonyl)-benzenesulfonamide] it was 95%.
The same measure, in the same setting: in the case of `CCn1c([C@@H](C)NS(=O)(=O)c2ccc(F)cc2)nc2cnc(OC)cc21` [Example 132, (R)-N-(1-(1-Ethyl-6-methoxy-1H-imidazo[4,5-c]pyridin-2-yl)ethyl)-4-fluorobenzenesulfonamide] it was 86.2%; in that of `C#Cc1ccc(S(=O)(=O)N[C@H](C)c2nc3ccc(C(F)(F)F)cc3n2CC)cn1` [Example 133, (R)-N-(1-(1-Ethyl-6-(trifluoromethyl)-1H-benzo[d]imidazol-2-yl)ethyl)-6-ethynylpyridine-3-sulfonamide], 86.4%.
With `CCn1c([C@@H](C)NS(=O)(=O)c2ccc(F)c(CN)c2)nc2ccc(C(F)(F)F)cc21` [Example 134, 3-(Aminomethyl)-N-[(1R)-1-[1-ethyl-6-(trifluoromethyl)-1H-benzimidazol-2-yl]ethyl]-4-fluorobenzenesulfonamide], 3.5 µM produced 95% inhibition.
Same read-out and setting: as for `CCn1c(C(C)(C)NS(=O)(=O)c2ccc(Cl)cc2)nc2ccc(C(F)(F)F)cc21` [Example 136, 4-Chloro-N-{1-[1-ethyl-6-(trifluoromethyl)-1H-benzimidazol-2-yl]-1-methylethyl}benzenesulfon-amide], the figure is 82.9%; as for `CCn1c(C(C)(C)NS(=O)(=O)c2ccc(F)cc2)nc2ccc(C(F)(F)F)cc21` [Example 137, N-[1-(1-Ethyl-6-trifluoromethyl-1H-benzoimidazol-2-yl)-1-methyl-ethyl]-4-fluoro-benzenesulfonamide], 88.8%; as for `CCn1c(C(C)(C)NS(=O)(=O)c2ccc(C#N)cc2)nc2ccc(C(F)(F)F)cc21` [Example 138, 4-Cyano-N-[1-(1-ethyl-6-trifluoromethyl-1H-benzoimidazol-2-yl)-1-methyl-ethyl]-benzenesulfonamide], 78.4%.
The same measure, in the same setting: as for `CCn1c(C(C)(C)NS(=O)(=O)c2ccccc2)nc2ccc(C(F)(F)F)cc21` [Example 139, N-{(1R)-1-[1-Ethyl-6-(trifluoromethyl)-1H-benzimidazol-2-yl]-1-methyl-ethyl}benzenesulfonamide], the figure is 88.3%; as for `CCn1c(C(C)(C)NS(=O)(=O)c2ccc(C#N)nc2)nc2ccc(C(F)(F)F)cc21` [Example 140, 6-Cyano-N-(2-(1-ethyl-6-(trifluoromethyl)-1H-0 benzo[d]imidazol-2-yl)propan-2-yl)pyridine-3-sulfonamide], 82.9%; as for `CCn1c(C(C)(C)NS(=O)(=O)c2ccc(C(N)=O)nc2)nc2ccc(C(F)(F)F)cc21` [Example 141, 5-(N-(2-(1-Ethyl-6-(trifluoromethyl)-1H-benzo[d]imidazol-2-yl)propan-2-yl)sulfamoyl)picolinamide], 82.6%.
On the same count and under the same terms, as for `CCn1c(C2(NS(=O)(=O)c3ccc(Cl)cc3)CC2)nc2ccc(C(F)(F)F)cc21` [Example 142, 4-Chloro-N-{1-[1-ethyl-6-(trifluoromethyl)-1H-benzimidazol-2-yl]cyclopropyl}benzenesulfon amide], the figure is 80.5%; as for `CCn1c(C2(NS(=O)(=O)c3ccc(F)cc3)CCC2)nc2ccc(C(F)(F)F)cc21` [Example 143, N-[1-(1-Ethyl-6-trifluoromethyl-1H-benzoimidazol-2-yl)-cyclobutyl]-4-fluoro-benzenesulfonamide], 84.7%.
Regarding `CCn1c([C@@H](C)NS(=O)(=O)c2ccc(Cl)cc2)nc2cnc(OC)cc21` [Example 144, (R)-4-Chloro-N-(1-(1-ethyl-6-methoxy-1H-imidazo[4,5-c]pyridin-2-yl)ethyl)benzenesulfonamide], the inhibition at 3.5 µM came out at 90.7%.
Same read-out and setting: as for `CCn1c([C@@H](C)NS(=O)(=O)c2ccc(C#N)cc2)nc2cnc(C(F)(F)F)cc21` [Example 146, (R)-4-Cyano-N-(1-(1-ethyl-6-(trifluoromethyl)-1H-imidazo[4,5-c]pyridin-2-yl)ethyl)benzenesulfonamide], the figure is 91.8%; as for `CCn1c([C@@H](C)NS(=O)(=O)c2ccc(Cl)cc2)nc2cnc(C(F)(F)F)cc21` [Example 147, (R)-4-Chloro-N-(1-(1-ethyl-6-(trifluoromethyl)-1H-imidazo[4,5-c]pyridin-2-yl)ethyl)benzenesulfonamide], 95.9%.
Same read-out and setting: in the case of `CCn1c([C@@H](C)NS(=O)(=O)c2ccc(C#N)nc2)nc2cnc(C(F)(F)F)cc21` [Example 148, (R)-6-Cyano-N-(1-(1-ethyl-6-(trifluoromethyl)-1H-imidazo[4,5-c]pyridin-2-yl)ethyl)pyridine-3-sulfonamide] it was 93%; in that of `CCn1c([C@@H](C)NS(=O)(=O)c2ccc(C(N)=O)nc2)nc2cnc(C(F)(F)F)cc21` [Example 149, (R)-5-(N-(1-(1-Ethyl-6-(trifluoromethyl)-1H-imidazo[4,5-c]pyridin-2-yl)ethyl)sulfamoyl)picolinamide], 93.3%.
`CCn1c([C@@H](C)NS(=O)(=O)c2ccc(C#N)cc2)nc2cnc(OC)cc21` [Example 150, (R)-4-Cyano-N-(1-(1-ethyl-6-methoxy-1H-imidazo[4,5-c]pyridin-2-yl)ethyl)benzenesulfonamide] came in with an inhibition at 3.5 µM of 91.6%.
Same read-out and setting: in the case of `CCn1c([C@@H](C)NS(=O)(=O)c2ccc(C#N)nc2)nc2cnc(OC)cc21` [Example 151, (R)-6-Cyano-N-(1-(1-ethyl-6-methoxy-1H-imidazo[4,5-c]pyridin-2-yl)ethyl)pyridine-3-sulfonamide] it was 91.7%.
The same measure, in the same setting: in the case of `CCn1c([C@@H](C)NS(=O)(=O)c2ccc(C(N)=O)nc2)nc2cnc(OC)cc21` [Example 152] it was 91.8%.

The values are drawn from patent US20100029643A1 (ASTRAZENECA AB, priority 2006, published 2010).
